Literature values, collected in patent US20260048008A1, “ORGANOGELS FOR SUSTAINED DRUG DELIVERY, METHODS OF PREPARATION AND USE THEREOF” (OCULAR THERAPEUTIX, INC., priority 2022, published 2026).

CC(C)OC(=O)CCC/C=C\C[C@@H]1[C@@H](/C=C/[C@@H](O)COc2cccc(C(F)(F)F)c2)[C@H](O)C[C@@H]1O [Travoprost]
solubility in water: practically insoluble in water
